Series [1] relates to tumor cell lines. Nature of the series: In vitro cytotoxicity, Alamar blue cell viability, all tumor cell lines. The series is classed as cell-based. The following applies: 72 hours treatment, all concentrations tested.
A short description of series [2]: PKs of topotecan and pazopanib in nontumor-bearing animals. The series is classed as in vivo, mouse. The following applies: for difference between plasma concentrations of single agent and combination treated animals: at any time point.
Series [3] concerns RH30 rhabdomyosarcoma xenograft. As to the kind of experiment: RH30 rhabdomyosarcoma xenograft model. The series is classed as in vivo. The settings on record: for tumor growth: LDM TP 1.0 mg/kg, PZ 150 mg/kg, TP + PZ both.
Series [4] relates to SH-SY5Y xenograft. As to the kind of experiment: SH-SY5Y subcutaneous xenograft model. The series is classed as in vivo. The following applies: for tumor microvessel density (CD31 pixel counts): compared with the control, 20 days treatment; for tumor growth delay / tumor weights at the end of the treatment: daily oral, 20 days, LDM TP 1.0 mg/kg, PZ 150 mg/kg, TP + PZ both.
Series [5] concerns ovarian cancer model. The following applies: cited from earlier work.
Series [6] has as its system RH30. As to the kind of experiment: In vitro cytotoxicity, Alamar blue cell viability. The series is classed as cell-based. The following applies: Rh30, 72 h, read-out: IC50, viability of RH30.
Series [7] relates to KHOS. Nature of the series: In vitro cytotoxicity, Alamar blue cell viability. The series is classed as cell-based. The following applies: 72 h, read-out: IC50, viability of KHOS.
Series [8] deals with KHOS osteosarcoma xenograft. Nature of the series: KHOS osteosarcoma xenograft model. The series is classed as in vivo. The settings on record: for tumor growth / tumor weight at the end of the treatment / tumor microvessel density (vWF pixel counts): 28 days; for tumor microvessel density (vWF pixel counts): compared with the control.
For series [9], the system named is BE(2)-c metastatic model. As to the kind of experiment: BE. The series is classed as in vivo, mouse. The following applies: daily oral until death or endpoint.
Series [10] has as its system RD. Nature of the series: In vitro cytotoxicity, Alamar blue cell viability. The series is classed as cell-based. The settings on record: Homo sapiens, 72 h, read-out: IC50, viability of RD.
[11] abbreviates: Pulse TP weekly oral 15 mg/kg topotecan.
[12] abbreviates: daily oral, LDM TP 1.0 mg/kg, TP + PZ 1.0 + 150 mg/kg.

Counter-ions that a name gives are not always drawn.

As for `Cc1ccc(Nc2nccc(N(C)c3ccc4c(C)n(C)nc4c3)n2)cc1S(N)(=O)=O` [pazopanib, 5-[[4-[(2,3-Dimethyl-2H-indazol-6-yl)methyl-amino]-2-pyrimidinyl]amino]-2-methylbenzolsulfonamide], the “effect on viability of the tumor cell lines” value in series [1] is given as “did not affect the viabilities”. In series [2], the “difference between plasma concentrations of single agent and combination treated animals” value is “no significant difference”. The molecule further had a Cmax in [2] (mouse, plasma, po, 150 mg/kg) of 134 µg/mL. For the same molecule, in series [3] (after 31 days treatment), the “WBC level (bone marrow toxicity)” value is “reduced WBC level significantly” and the “viable CEP levels in blood” value is recorded as “significantly lower viable CEP levels compared with the control”. In addition, in [3] (daily oral, 56 days), the “enhancement of survival compared with both control and LDM TP” value amounted to 2 fold; the tumor growth entry is “delayed the tumor growth”. Further, in [4], the “tumor microvessel density (CD31 pixel counts)” value is reported as “significant reduction in microvessel densities”, the tumor growth delay result is “tumor growth delay in the order PZ< LDM TP< TP+PZ” and the “tumor weights at the end of the treatment” value is “significant difference in tumor weights compared with the control”.
As to `CC[C@@]1(O)C(=O)OCc2c1cc1n(c2=O)Cc2cc3c(CN(C)C)c(O)ccc3nc2-1` [topotecan, (S)-10-[(dimethylamino)methyl]-4-ethyl-4,9-dihydroxy-1H-yrano [3′,4′:6,7] indolizino[1,2-b] quinoline-3,14 (4H,12H)-dione monohydrochloride], the food intake result in [5] (1.5 mg/kg daily, oral) is reported as “decreased food intake”. In series [5] (daily oral metronomic 0.5, 1.0 and 1.5 mg/kg), the “microvascular density compared with weekly maximum-tolerated dose regimen (7.5 and 15 mg/kg)” value is on record as “greater reduction in microvascular density”. Moreover, the IC50 stood at 7.4 ng/mL in [6], 4.9 ng/mL in [7] and 7.5 ng/mL in series [10]. In addition, the “effect on viability of the tumor cell lines” value in series [1] is on record as “dose-dependent reduction in the viability”. For the same molecule, the “peak plasma concentration of topotecan” value is recorded as 19.75 ng/mL in series [2] (LDM TP group, single oral 1.0 mg/kg topotecan) and 33.05 ng/mL in [2] (TP + PZ group, single oral 1.0 mg/kg topotecan + 150 mg/kg pazopanib). Besides, the “difference between plasma concentrations of single agent and combination treated animals” value in series [2] was “no significant difference”. Further, the tumor growth result in series [3] (daily oral, 56 days) is “ineffective in controlling the tumor growth”; in series [8] (setting [11]), “delayed the tumor growth”; in [8] (setting [12]), “delayed the tumor growth”. Also, the “tumor weight at the end of the treatment” value in [8] (setting [11]) and in series [8] (setting [12]) was “significantly lower tumor weight” in each case. In addition, the “viable CEP levels in blood” value in series [8] (after 28 days treatment) was “significant reduction in viable CEP levels compared with Pulse TP”. In addition, the “tumor microvessel density (vWF pixel counts)” value in [8] (Pulse TP weekly 15 mg/kg) and in series [8] (daily regimens) was “caused reduction in microvessel densities” in each case. In [9], the survival result is on record as “higher than PZ-treated animals”. For the same molecule, in series [4], the “tumor microvessel density (CD31 pixel counts)” value is “but not LDM TP caused significant reduction in microvessel densities”. Moreover, in [4], the tumor growth delay result is listed as “tumor growth delay in the order PZ< LDM TP< TP+PZ”. The “tumor weights at the end of the treatment” value in series [4] is listed as “significant tumor weight reduction compared with PZ”.

The values are drawn from paper PMC3687796 (Clinical cancer research : an official journal of the …, 2011).
